In patent US9273057B2 (Bristol-Myers Squibb Company, priority 2012, dated 2016):
Where a name gives a salt, the structure may show the parent alone.

Molecular target: CK2A1 (CK2α/β) (Homo sapiens, UniProt P68400)
Assay: CK2 kinase assay, CK2A1 (CK2α/β)
Assay type: biochemical
Conditions: Table A; read-out: CK2A1 (CK2α/β) (IC50)

CK2A1 (CK2α/β), sequence (P68400 whole entry, species assumed): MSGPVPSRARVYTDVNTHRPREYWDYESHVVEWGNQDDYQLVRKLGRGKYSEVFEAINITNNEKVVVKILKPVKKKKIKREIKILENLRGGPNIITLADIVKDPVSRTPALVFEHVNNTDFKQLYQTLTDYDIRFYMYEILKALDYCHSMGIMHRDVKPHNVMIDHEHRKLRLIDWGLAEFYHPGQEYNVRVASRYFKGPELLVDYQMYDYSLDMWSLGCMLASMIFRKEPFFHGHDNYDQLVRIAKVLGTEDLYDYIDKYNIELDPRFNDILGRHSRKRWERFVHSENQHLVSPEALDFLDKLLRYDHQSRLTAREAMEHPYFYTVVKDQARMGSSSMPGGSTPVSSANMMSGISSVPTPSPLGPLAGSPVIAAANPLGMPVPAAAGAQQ
CK2A1 (CK2α/β), sequence (P67870 whole entry partner, species assumed): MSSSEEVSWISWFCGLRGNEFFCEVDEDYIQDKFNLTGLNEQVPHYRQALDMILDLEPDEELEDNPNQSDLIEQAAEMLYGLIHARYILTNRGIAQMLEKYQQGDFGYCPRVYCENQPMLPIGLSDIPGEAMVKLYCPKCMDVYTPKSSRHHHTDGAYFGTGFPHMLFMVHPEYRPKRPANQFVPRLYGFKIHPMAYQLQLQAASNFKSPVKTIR

| IC50 | SMILES |
| --- | --- |
| 3.76 nM | CCNc1nc(Nc2cc(C#N)cc(N3CCC4(CC3)CC(=O)N(C)C4)c2Cl)nn2c(C#N)cnc12 (racemic) [Example 783, (+/−)-2-((2-chloro-5-cyano-3-(2-methyl-3-oxo-2,8-diazaspiro[4.5]decan-8-yl)phenyl)amino)-4-(ethylamino)imidazo[2,1-f][1,2,4]triazine-7-carbonitrile] |
| 1.28 nM | CC(C(N)=O)N1CCC(c2cc(C#N)cc(Nc3nc(NC4CC4)c4ncc(C#N)n4n3)c2Cl)CC1 (racemic) [Example 639, (+/−)-2-(4-(2-chloro-5-cyano-3-((7-cyano-4-(cyclopropylamino)imidazo[2,1-f][1,2,4]triazin-2-yl)amino)phenyl)piperidin-yl)propanamide] |
| 3.49 nM | N#Cc1cnc2c(NC3CC3)nc(Nc3cc(C(F)F)cc(N4CCN(C5CCOC5)CC4)c3Cl)nn12 (racemic) [Example 265, (+/−) 2-(2-chloro-5-(difluoromethyl)-3-(4-(tetrahydrofuran-3-yl)piperazin-1-yl)phenylamino)-4-(cyclopropylamino)imidazo[1,2-f][1,2,4]triazine-7-carbonitrile] |
| 0.74 nM | CS(=O)(=O)N1CC(N2CCN(c3cc(C#N)cc(Nc4nc(NC5CC5)c5ncc(C#N)n5n4)c3Cl)CC2)C1 [Example 73] |
| 18.7 nM | CCNc1nc(Nc2cc(C#N)cc(N3CC[C@@H](NC(=O)OC)[C@H](OC(=O)C[C@H](N)C(=O)OC(C)(C)C)C3)c2Cl)nn2c(C#N)cnc12 [Example 815, (S)-1-tert-butyl 4-((3R,4R)-1-(2-chloro-5-cyano-3-((7-cyano-4-(ethylamino)imidazo[2,1-f][1,2,4]triazin-2-yl)amino)phenyl)-4-((methoxycarbonyl)amino)piperidin-3-yl) 2-aminosuccinate hydrochloride] |
| 8.02 nM | N#Cc1cc(Nc2nc(NC3CC3)c3ncc(C#N)n3n2)c(Cl)c(N2CCN(C3CCCC3F)CC2)c1 (stereo not shown) [Example 587, 2-({2-chloro-5-cyano-3-[4-(2-fluorocyclopentyl)piperazin-1-yl]phenyl}amino)-4-(cyclopropylamino)imidazo [2,1-f][1,2,4]triazine-7-carbonitrile] |
| 2 nM | COC(=O)NC1CCN(c2cc(C#N)cc(Nc3nc(NC4CC4)c4ncc(C#N)n4n3)c2Cl)C[C@@H]1N(C)CC#N (stereo in doubt) [Example 764, methyl N-[(3S,4S)-1-(2-chloro-5-cyano-3-{[7-cyano-4-(cyclopropylamino)imidazo [2,1-f][1,2,4]triazin-2-yl]amino}phenyl)-3-[(cyanomethyl)(methyl)amino]piperidin-4-yl]carbamate] |
| 0.38 nM | N#Cc1cc(Nc2nc(NC3CC3)c3ncc(C#N)n3n2)c(Cl)c(OC2CCN(C3COC3)C2)c1 (racemic) [Example 426, (+/−)-2-((2-chloro-5-cyano-3-((1-(oxetan-3-yl)pyrrolidin-3-yl)oxy)phenyl)amino)-4-(cyclopropylamino)imidazo[2,1-f][1,2,4]triazine-7-carbonitrile] |
| 1.27 nM | CCNc1nc(Nc2cc(C#N)cc(N3CCN(C4CN(C(=O)OC)C4)CC3)c2Cl)nn2c(C#N)cnc12 [Example 101, methyl 3-(4-(2-chloro-5-cyano-3-((7-cyano-4-(ethylamino)imidazo [2,1-f][1,2,4]triazin-2-yl)amino)phenyl)-1-piperazinyl)-1-azetidinecarboxylate] |
| 4.62 nM | CCOCCC(=O)N1CC(N2CCN(c3cc(C#N)cc(Nc4nc(NC5CC5)c5ncc(C#N)n5n4)c3Cl)CC2)C1 [Example 511, 2-[(2-chloro-5-cyano-3-{4-[1-(3-ethoxypropanoyl)azetidin-3-yl]piperazin-1-yl}phenyl)amino]-4-(cyclopropylamino)imidazo[2,1-f][1,2,4]triazine-7-carbonitrile] |
| 0.93 nM | N#Cc1cc(Nc2nc(NC3CC3)c3ncc(C#N)n3n2)c(Cl)c(N2CCN(C(CO)CO)CC2)c1 [Example 539, 2-((2-chloro-5-cyano-3-(4-(1,3-dihydroxypropan-2-yl)piperazin-1-yl)phenyl)amino)-4-(cyclopropylamino)imidazo[2,1-f][1,2,4]triazine-7-carbonitrile] |
| 1.03 nM | CC(C)(O)C1CN(C2CCN(c3cc(C#N)cc(Nc4nc(NC5CC5)c5ncc(C#N)n5n4)c3Cl)CC2)CCO1 (racemic) [Example 148, (+/−) 2-((2-chloro-5-cyano-3-(4-(2-(1-hydroxy-1-mcthylethyl)-4-morpholinyl)-1-piperidinyl)phenyl)amino)-4-(cyclopropylamino)imidazo [2,1-f][1,2,4]triazine-7-carbonitrile] |
| 0.42 nM | N#Cc1cc(Nc2nc(NC3CC3)c3ncc(C#N)n3n2)c(Cl)c(N2CC(N3CCNCC3)C2)c1 [Example 155, 2-((2-chloro-5-cyano-3-(3-(1-piperazinyl)-1-azetidinyl)phenyl)amino)-4-(cyclopropylamino)imidazo [2,1-f][1,2,4]triazine-7-carbonitrile] |
| 0.95 nM | COCCNCC(O)c1cc(C#N)cc(Nc2nc(NC3CC3)c3ncc(C#N)n3n2)c1Cl (stereo not shown) [Example 685, 2-((2-chloro-5-cyano-3-(1-hydroxy-2-((2-methoxyethyl)amino)ethyl)phenyl)amino)-4-(cyclopropylamino)imidazo[2,1-f][1,2,4]triazine-7-carbonitrile] |
| 1.1 nM | CC(C)(CO)NCC(O)c1cc(C#N)cc(Nc2nc(NC3CC3)c3ncc(C#N)n3n2)c1Cl (stereo not shown) [Example 693, 2-((2-chloro-5-cyano-3-(1-hydroxy-2-((1-hydroxy-2-methylpropan-2-yl)amino)ethyl)phenyl)amino)-4-(cyclopropylamino)imidazo[2,1-f][1,2,4]triazine-7-carbonitrile] |
| 0.42 nM | Cn1cnc2cc(Nc3nc(NC4CC4)c4ncc(C#N)n4n3)ccc21 [Example 3, 4-(cyclopropylamino)-2-((1-methyl-1H-benzimidazol-5-yl)amino)imidazo[2,1-f][1,2,4]triazine-7-carbonitrile] |
| 1.92 nM | CN1CCN(C(CO)CCc2cc(C#N)cc(Nc3nc(NC4CC4)c4ncc(C#N)n4n3)c2Cl)CC1 (stereo not shown) [Example 723, 2-({2-chloro-5-cyano-3-[4-hydroxy-3-(4-methylpiperazin-1-yl)butyl]phenyl}amino)-4-(cyclopropylamino)imidazo [2,1-f][1,2,4]triazine-7-carbonitrile] |
| 1.78 nM | C[C@H](O)CN1CC(N2CCC(c3cc(C#N)cc(Nc4nc(NC5CC5)c5ncc(C#N)n5n4)c3Cl)CC2)C1 [Example 322, 2-((2-chloro-5-cyano-3-(1-(1-((2S)-2-hydroxypropyl)-3-azetidinyl)-4-piperidinyl)phenyl)amino)-4-(cyclopropylamino)imidazo [2,1-f][1,2,4]triazine-7-carbonitrile] |
| 1.62 nM | CCNc1nc(Nc2cc(C#N)cc(N3CCN([C@H]4C[C@H](O)C4)CC3)c2Cl)nn2c(C#N)cnc12 [Example 613, 2-[(2-chloro-5-cyano-3-{4-[(1r,3r)-3-hydroxycyclobutyl]piperazin-1-yl}phenyl)amino]-4-(ethylamino)imidazo [2,1-f][1,2,4]triazine-7-carbonitrile] |
| 0.88 nM | CCNc1nc(Nc2cc(C#N)cc(C3CCN(C)CC3)c2Cl)nn2c(C#N)cnc12 [Example 351, 2-((2-chloro-5-cyano-3-(1-methyl-4-piperidinyl)phenyl)amino)-4-(ethylamino)imidazo[2,1-f][1,2,4]triazine-7-carbonitrile] |
| 1.12 nM | C[C@H](O)C(=O)N1CC2(CCN(c3cc(C#N)cc(Nc4nc(NC5CC5)c5ncc(C#N)n5n4)c3Cl)CC2)C1 [Example 795, (S)-2-((2-chloro-5-cyano-3-(2-(2-hydroxypropanoyl)-2,7-diazaspiro[3.5]nonan-7-yl)phenyl)amino)-4-(cyclopropylamino)imidazo[2,1-f][1,2,4]triazine-7-carbonitrile] |
| 3.86 nM | CC(C)(C)CC(=O)N1CCC(c2cc(C#N)cc(Nc3nc(NC4CC4)c4ncc(C#N)n4n3)c2Cl)CC1 [Example 235, 2-((2-chloro-5-cyano-3-(1-(3,3-dimethylbutanoyl)-4-piperidinyl)phenyl)amino)-4-(cyclopropylamino)imidazo[2,1-f][1,2,4]triazine-7-carbonitrile] |
| 0.48 nM | N#Cc1cc(Nc2nc(NC3CC3)c3ncc(C#N)n3n2)c(Cl)c(C(F)C2CCNCC2)c1 (stereo not shown) [Example 662, 2-((2-chloro-5-cyano-3-(fluoro(piperidin-4-yl)methyl)phenyl)amino)-4-(cyclopropylamino)imidazo[2,1-f][1,2,4]triazine-7-carbonitrile] |
| 1.25 nM | COC(=O)N[C@@H]1CCN(c2cc(C#N)cc(Nc3nc(NC4CC4)c4ncc(C#N)n4n3)c2Cl)C[C@H]1OC(=O)C1(N)CC1 [Example 194, (3R,4R)-1-(2-chloro-5-cyano-3-((7-cyano-4-(cyclopropylamino)imidazo[2,1-f][1,2,4]triazin-2-yl)amino)phenyl)-4-((methoxycarbonyl)amino)-3-piperidinyl 1-aminocyclopropanecarboxylate] |
| 0.41 nM | CCNc1nc(Nc2cc(C#N)cc(N3CC[C@@H](NC(=O)OCC)[C@H](O)C3)c2Cl)nn2c(C#N)cnc12 [Example 332, ethyl ((3R,4R)-1-(2-chloro-5-cyano-3-((7-cyano-4-(ethylamino)imidazo[2,1-f][1,2,4]triazin-2-yl)amino)phenyl)-3-hydroxypiperidin-4-yl)carbamate] |
| 0.68 nM | CN1CCC2(CC1)CN(c1cc(C#N)cc(Nc3nc(NC4CC4)c4ncc(C#N)n4n3)c1Cl)C2 [Example 22, 2-((2-chloro-5-cyano-3-(7-methyl-2,7-diazaspiro[3.5]non-2-yl)phenyl)amino)-4-(cyclopropylamino)imidazo [2,1-f][1,2,4]triazine-7-carbonitrile] |
| 0.86 nM | CN1CCN(C2CN(c3cc(C(F)F)cc(Nc4nc(NC5CC5)c5ncc(C#N)n5n4)c3Cl)C2)CC1 [Example 278, 2-((2-chloro-5-(difluoromethyl)-3-(3-(4-methyl-1-piperazinyl)-1-azetidinyl)phenyl)amino)-4-(cyclopropylamino)imidazo[2,1-f][1,2,4]triazine-7-carbonitrile] |
| 0.43 nM | N#Cc1cc(Nc2nc(NC3CC3)c3ncc(C#N)n3n2)c(Cl)c(N2CCN(C3CNC3)CC2)c1 [Example 612, 2-({3-[4-(azetidin-3-yl)piperazin-1-yl]-2-chloro-5-cyanophenyl}amino)-4-(cyclopropylamino)imidazo [2,1-f][1,2,4]triazine-7-carbonitrile] |
